Data published in US12568967B2, “Compositions comprising pyridine carboxylate herbicides with synthetic auxin herbicides or auxin transport inhibitors” (priority 2018, dated 2026).
Where two headings read alike, the source gives them in different places.

How the values were obtained:
[1] = tested on: Cirsium arvense (Canadian thistle, CIRAR); assay: Greenhouse postemergence trial CIRAR; format: in vivo
[2] = tested on: Sinapis arvensis (wild mustard, SINAR); assay: Greenhouse postemergence trial SINAR; format: in vivo
[3] = tested on: Brassica napus (spring rape, BRSNN); assay: Greenhouse postemergence trial BRSNN; format: in vivo; conditions: for % visual injury (Obs): BRSNN
[4] = tested on: Matricaria discoidea (pineapple weed, MATMT); assay: Greenhouse postemergence trial MATMT; format: in vivo; conditions: MATMT
[5] = tested on: Matricaria inodora (false chamomile, MATIN); assay: Greenhouse postemergence trial MATIN; format: in vivo; conditions: MATIN
[6] = tested on: Hordeum vulgare (winter barley, HORVW); assay: Greenhouse postemergence crop phytotoxicity HORVW; format: in vivo; conditions: HORVW
Description: (§1) Seeds of the desired test plant species were planted in a 90:10% v/v (volume/volume) mixture of PRO-MIX® BX (Premier Tech Horticulture, Quakertown, PA, USA) and PROFILE® GREENS GRADE™ (Profile Products LLC, Buffalo Grove, IL, USA) planting mixture, which typically has a pH of 5.2 to 6.2 and an organic matter content of at least 50 percent, in plastic pots with a surface area of 103.2 square centimeters (cm^2). […] The plants were grown for 7-36 days (d) in a greenhouse with an approximate 14-hour (h) photo-period which was maintained at about 23° C. during the day and 22° C. during the night. Nutrients and water were added on a regular basis and supplemental lighting was provided with overhead metal halide 1000-Watt lamps as necessary. The plants were employed for testing when they reached the second or third true leaf stage.
(§2) Emulsifiable concentrates of each of each pyridine carboxylate herbicide (Compound A or Compound B) were prepared at 100 grams acid equivalent per liter (g ae/L). The emulsifiable concentrates also included a safener, cloquintocet-mexyl, at 120 grams active ingredient per liter (g ai/L), unless otherwise noted below. An aliquot of each emulsifiable concentrate was placed in a 25 mL glass vial and diluted with an aqueous mixture of 1.25% (v/v) ACTIROB® B esterified rapeseed oil (Bayer Crop Science, Research Triangle Park, NC, USA) or MSO® Concentrate with LECI-TECH® methylated soybean oil (Loveland Products, Loveland, CO, USA) to obtain concentrated stock solutions at the highest application rate for each herbicide, based upon a 12 milliliter (mL) application volume at a rate of 187 liters per hectare (L/ha). The concentrated stock solutions were further diluted with an aqueous mixture of 1.25% v/v ACTIROB® B or MSO® Concentrate with LECI-TECH® to obtain stock solutions at reduced application rates for each herbicide. Spray solutions of the herbicide combinations (Compound A or Compound B plus synthetic auxin herbicide or auxin transport inhibitor) were prepared by adding weighed amounts or aliquots of the synthetic auxin herbicide or auxin transport inhibitor to the stock solutions of Compound A or Compound B to form 12-mL spray solutions in two-way combinations.
(§3) The spray solutions were applied to the plant material with an overhead Mandel track sprayer equipped with 8002E nozzles calibrated to deliver 187 L/ha over an application area of 0.503 square meters (m^2) at a spray height of 18 inches (43 centimeters (cm)) above the average plant canopy. Control plants were sprayed in the same manner with the solvent blank. All pyridine carboxylate herbicide (component a) application rates are given as “g ae/ha” and all synthetic auxin herbicide or auxin transport inhibitor (component b) application rates are given as “g ai/ha.”
(§4) The treated plants and control plants were placed in a greenhouse as described above and watered by sub-irrigation to prevent wash-off of the test compounds. After 20-22 d, the condition of the test plants as compared with that of the control plants was determined visually and scored on a scale of 0 to 100 percent where 0 corresponds to no injury and 100 corresponds to complete kill.

[7] = tested on: Matricaria chamomilla (wild chamomile, MATCH); assay: Greenhouse postemergence trial MATCH; format: in vivo;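 also: greenhouse plants sprayed at second to third true leaf stage, injury rated by eye 20-22 d later versus solvent-blank controls on 0–100 scale, 0 no injury, 100 complete kill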
Description: (§5) The plants were grown for 7-36 days (d) in a greenhouse with an approximate 14-hour (h) photo-period which was maintained at about 23° C. during the day and 22° C. during the night. Nutrients and water were added on a regular basis and supplemental lighting was provided with overhead metal halide 1000-Watt lamps as necessary. The plants were employed for testing when they reached the second or third true leaf stage.
(§6) The emulsifiable concentrates also included a safener, cloquintocet-mexyl, at 120 grams active ingredient per liter (g ai/L), unless otherwise noted below.
(§7) Control plants were sprayed in the same manner with the solvent blank. All pyridine carboxylate herbicide (component a) application rates are given as “g ae/ha” and all synthetic auxin herbicide or auxin transport inhibitor (component b) application rates are given as “g ai/ha.”
as §4

[8] = tested on: Capsella bursa-pastoris (shepherd's purse, CAPBP); assay: Greenhouse postemergence trial CAPBP; format: in vivo; conditions: CAPBP
[9] = tested on: Polygonum convolvulus (wild buckwheat, POLCO); assay: Greenhouse postemergence trial POLCO; format: in vivo; conditions: POLCO
Description: as §1, §2, §3, §4

[10] = tested on: Triticum aestivum (spring wheat, TRZAS); format: in vivo; conditions: for % visual injury Obs / % visual injury (Obs): TRZAS
[11] = tested on: Papaver rhoeas (corn poppy, PAPRH); assay: Greenhouse postemergence trial PAPRH; format: in vivo; conditions: PAPRH
[12] = tested on: Salsola kali (Russian thistle, SASKR); assay: Greenhouse postemergence trial SASKR; format: in vivo;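 also: greenhouse plants sprayed at second or third true leaf stage, injury rated by eye after 20-22 d against solvent-blank controls, 0 meaning no injury, 100 complete kill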
Description: as §5, §6, §7, §4

[13] = tested on: Stellaria media (chickweed, STEME); assay: Greenhouse postemergence trial STEME; format: in vivo; conditions: STEME
[14] = tested on: Veronica hederifolia (ivyleaf speedwell, VERHE); assay: Greenhouse postemergence trial VERHE; format: in vivo; conditions: VERHE
[15] = tested on: Cyanus segetum (cornflower, CENCY); assay: Greenhouse postemergence trial CENCY; format: in vivo; conditions: CENCY
Description: as §1, §2, §3, §4

[16] = tested on: Viola tricolor (wild pansy, VIOTR); assay: Greenhouse postemergence trial VIOTR;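 also: greenhouse plants sprayed at second to third true leaf stage, injury rated visually after 20-22 d against solvent-blank sprayed controls, 0 meaning no injury and 100 complete kill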
[17] = tested on: Triticum aestivum (winter wheat, TRZAW); assay: Greenhouse postemergence crop phytotoxicity TRZAW; format: in vivo; conditions: TRZAW
Description: as §1, §2, §3, §4

[18] = tested on: Hordeum vulgare (spring barley, HORVS); format: in vivo; conditions: for % visual injury Obs / % visual injury (Obs): HORVS
Description: as §1, §2, §3, §4

[19] = tested on: Papaver rhoeas (corn poppy), herbicide-resistant (PAPRH-R); assay: Greenhouse postemergence trial PAPRH-R; format: in vivo; conditions: PAPRH-R
Description: as §1, §2, §3, §4

[20] = tested on: Anthemis arvensis (field chamomile, ANTAR); assay: Greenhouse postemergence trial ANTAR; format: in vivo; conditions: ANTAR
[21] = tested on: Lamium purpureum (purple deadnettle, LAMPU); assay: Greenhouse postemergence trial LAMPU
[22] = tested on: Viola arvensis (field violet, VIOAR); assay: Greenhouse postemergence trial VIOAR; format: in vivo; conditions: VIOAR
Description: as §1, §2, §3, §4

[23] = tested on: Veronica persica (bird's-eye speedwell, VERPE); assay: Greenhouse postemergence trial VERPE; format: in vivo; conditions: VERPE
[24] = tested on: Brassica napus (winter rape, BRSNW); assay: Greenhouse postemergence trial BRSNW; format: in vivo; conditions: BRSNW
[25] = tested on: Kochia scoparia (kochia, KCHSC); assay: Greenhouse postemergence trial KCHSC; format: in vivo
Description: as §1, §2, §3, §4

[26] = tested on: Chenopodium album L. (common lambsquarters, CHEAL); assay: Greenhouse postemergence trial CHEAL; format: in vivo; conditions: chlorflurenol-methyl 140 g/ha;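 also: greenhouse plants sprayed at second to third true leaf stage, injury rated by eye after 20-22 d versus solvent-blank sprayed controls, 0 = no injury, 100 = complete kill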
Description: as §5, §6, §7, §4

[27] = tested on: Amaranthus retroflexus (pigweed, AMARE); assay: Greenhouse postemergence trial AMARE; format: in vivo; conditions: chlorflurenol-methyl 140 g/ha;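 also: Greenhouse-grown plants sprayed at second to third true leaf stage, injury rated by eye after 20-22 d versus solvent-blank sprayed controls, 0 = no injury, 100 = complete kill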
[28] = Papaver rhoeas, post-emergence, Picloram 20 g/ha, read-out: % visual injury Obs

Nc1c(Cl)c(Cl)nc(C(=O)O)c1Cl [Picloram]
pest or weed control at 20 g/ha ([1]; Cirsium arvense, post-emergence, CIRAR, Picloram 20 g/ha, read-out: % visual injury Obs): 60% | pest or weed control at 20 g/ha ([2]; Mutarda arvensis, post-emergence, SINAR, Picloram 20 g/ha, read-out: % visual injury Obs): 30% | % visual injury (Obs) ([3]; alone 10 g/ha): 8% | pest or weed control at 20 g/ha ([4]; Matricaria discoidea, post-emergence, Picloram 20 g/ha, read-out: % visual injury Obs): 10% | % visual injury (Obs) ([5]; alone 10 g/ha): 10% | pest or weed control at 20 g/ha ([5]; Tripleurospermum inodorum, post-emergence, Picloram 20 g/ha, read-out: % visual injury Obs): 30% | % visual injury Obs ([6]; Picloram 20 g/ha): 0% | pest or weed control at 20 g/ha ([7]; Matricaria chamomilla, post-emergence, MATCH, Picloram 20 g/ha, read-out: % visual injury Obs): 40% | % visual injury (Obs) ([8]; alone 10 g/ha): 10% | pest or weed control at 20 g/ha ([8]; Capsella bursa-pastoris, post-emergence, Picloram 20 g/ha, read-out: % visual injury Obs): 0% | pest or weed control at 20 g/ha ([9]; Fallopia convolvulus, post-emergence, Picloram 20 g/ha, read-out: % visual injury Obs): 40% | % visual injury Obs ([10]; Picloram 20 g/ha): 0% | % visual injury (Obs) ([10]; alone 10 g/ha): 0% | pest or weed control at 20 g/ha [11, 28]: 20% | pest or weed control at 20 g/ha ([12]; Salsola kali, post-emergence, SASKR, Picloram 20 g/ha, read-out: % visual injury Obs): 30% | pest or weed control at 20 g/ha ([13]; Stellaria media, post-emergence, Picloram 20 g/ha, read-out: % visual injury Obs): 10% | pest or weed control at 20 g/ha ([14]; Veronica hederifolia, post-emergence, Picloram 20 g/ha, read-out: % visual injury Obs): 10% | pest or weed control at 20 g/ha ([15]; Centaurea cyanus, post-emergence, Picloram 20 g/ha, read-out: % visual injury Obs): 60% | % visual injury (Obs) ([16]; VIOTR, alone, 10 g/ha): 10% | pest or weed control at 20 g/ha ([16]; Viola tricolor, post-emergence, read-out: % visual injury Obs): 10% | % visual injury Obs ([17]; Picloram 20 g/ha): 0% | % visual injury Obs ([18]; Picloram 20 g/ha): 0% | % visual injury (Obs) ([18]; alone 10 g/ha): 0% | pest or weed control at 20 g/ha [19, 28]: 30% | pest or weed control at 20 g/ha ([20]; Anthemis arvensis, post-emergence, Picloram 20 g/ha, read-out: % visual injury Obs): 30% | % visual injury (Obs) ([21]; LAMPU, alone 10 g/ha): 10% | pest or weed control at 20 g/ha ([21]; Lamium purpureum, post-emergence, read-out: % visual injury Obs): 5% | pest or weed control at 20 g/ha ([22]; Viola arvensis, post-emergence, Picloram 20 g/ha, read-out: % visual injury Obs): 10% | pest or weed control at 20 g/ha ([23]; Veronica persica, post-emergence, Picloram 20 g/ha, read-out: % visual injury Obs): 10% | plant injury at 20 g/ha ([24]; Brassica napus, post-emergence, Picloram 20 g/ha, read-out: % visual injury Obs): 10% | pest or weed control at 20 g/ha ([25]; Bassia scoparia, post-emergence, KCHSC, Picloram 20 g/ha, read-out: % visual injury Obs): 10% | % visual injury (Obs) ([25]; KCHSC, alone 10 g/ha): 10%

Nc1nc(C2CC2)nc(C(=O)O)c1Cl [Aminocyclopyrachlor]
% visual injury Obs ([1]; CIRAR, alone, 50 g/ha): 85% | % visual injury Obs ([2]; SINAR, alone, 50 g/ha): 50% | % visual injury (Obs) ([3]; alone 25 g/ha): 30% | % visual injury Obs ([4]; alone, 50 g/ha): 50% | % visual injury Obs ([5]; alone, 50 g/ha): 85% | % visual injury Obs ([6]; alone, 50 g/ha): 0% | % visual injury Obs ([7]; MATCH, alone, 50 g/ha): 60% | % visual injury Obs ([8]; alone, 50 g/ha): 70% | % visual injury Obs ([9]; alone, 50 g/ha): 70% | % visual injury (Obs) ([10]; alone 25 g/ha): 43% | % visual injury Obs ([10]; alone, 50 g/ha): 0% | % visual injury Obs ([11]; alone, 50 g/ha): 75% | % visual injury Obs ([12]; SASKR, alone, 50 g/ha): 75% | % visual injury Obs ([13]; alone, 50 g/ha): 30% | % visual injury Obs ([14]; alone, 50 g/ha): 60% | % visual injury Obs ([15]; alone, 50 g/ha): 100% | % visual injury (Obs) ([16]; VIOTR, alone 25 g/ha): 45% | % visual injury Obs ([16]; VIOTR, alone, 50 g/ha): 30% | % visual injury Obs ([17]; alone, 50 g/ha): 0% | % visual injury (Obs) ([18]; alone 25 g/ha): 20% | % visual injury Obs ([18]; alone, 50 g/ha): 0% | % visual injury Obs ([19]; alone, 50 g/ha): 60% | % visual injury Obs ([20]; alone, 50 g/ha): 100% | % visual injury Obs ([21]; LAMPU, alone, 50 g/ha): 65% | % visual injury Obs ([22]; alone, 50 g/ha): 25% | % visual injury Obs ([23]; alone, 50 g/ha): 65% | % visual injury Obs ([24]; alone, 50 g/ha): 50% | % visual injury (Obs) ([25]; KCHSC, alone 25 g/ha): 78% | % visual injury Obs ([25]; KCHSC, alone, 50 g/ha): 100%

COC(=O)C1(O)c2ccccc2-c2ccc(Cl)cc21 (centres unmarked) [Chlorflurenol-methyl]
CIRAR Obs (% visual injury) ([1]; chlorflurenol-methyl 140 g/ha): 0% | SINAR Obs (% visual injury) ([2]; chlorflurenol-methyl 140 g/ha): 18% | BRSNN Obs (% visual injury) ([3]; chlorflurenol-methyl 140 g/ha): 23% | CHEAL Obs (% visual injury) [26]: 0% | MATCH Obs (% visual injury) ([7]; chlorflurenol-methyl 140 g/ha): 0% | AMARE Obs (% visual injury) [27]: 0% | TRZAS Obs (% visual injury) ([10]; chlorflurenol-methyl 140 g/ha): 0% | SASKR Obs (% visual injury) ([12]; chlorflurenol-methyl 140 g/ha): 0% | HORVS Obs (% visual injury) ([18]; chlorflurenol-methyl 140 g/ha): 0% | KCHSC Obs (% visual injury) ([25]; chlorflurenol-methyl 140 g/ha): 0%
